Source: patent publication US8933070B2, “Methods of targeting PTEN mutant diseases and compositions therefor” (University Health Network, priority 2010, dated 2015)

Key:
Aurora A = target: T1, Aurora A (Homo sapiens, UniProt O14965); experiment: Aurora A inhibition assay (Z-Lyte); type: biochemical
T1 construct: purchased Invitrogen PV3612
T1 sequence (O14965 1-403): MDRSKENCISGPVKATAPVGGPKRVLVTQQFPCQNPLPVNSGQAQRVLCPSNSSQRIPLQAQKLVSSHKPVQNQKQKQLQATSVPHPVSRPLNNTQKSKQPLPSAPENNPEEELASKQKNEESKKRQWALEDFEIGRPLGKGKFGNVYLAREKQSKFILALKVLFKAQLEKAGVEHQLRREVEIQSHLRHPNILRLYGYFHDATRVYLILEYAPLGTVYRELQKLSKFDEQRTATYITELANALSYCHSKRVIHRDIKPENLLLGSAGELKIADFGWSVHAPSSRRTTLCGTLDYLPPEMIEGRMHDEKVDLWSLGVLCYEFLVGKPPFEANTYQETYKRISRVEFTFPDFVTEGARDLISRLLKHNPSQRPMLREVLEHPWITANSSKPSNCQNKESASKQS
Protocol: Aurora A inhibition was determined using the Z-Lyte assay kit from Invitrogen. The assay was performed using the recommended manufacturer's instructions with 20 nM ATP and 12 nM Aurora A (Invitrogen cat #PV3612). The % inhibition values were determined according to the manufacturer's directions and IC50 values were obtained using a non-linear 4 point logistic curve fit (XLfit4, IDBS)

Aurora B = target: T2, Aurora B (Homo sapiens, UniProt Q96GD4); experiment: Aurora B inhibition assay (Z-Lyte); type: biochemical; details: read-out: IC50 Ranges Aurura B
T2 construct: purchased Invitrogen PV3970
Protocol: Aurora B inhibition was determined using the Z-Lyte assay kit from Invitrogen. […] The % inhibition values were determined according to the manufacturer's directions and IC50 values were obtained using a non-linear 4 point logistic curve fit (XLfit4, IDBS).

[1] = test system: MDA-MB-468 basal breast cancer cell line; experiment: Cell growth inhibition, Sulforhodamine B (SRB) assay; type: cell-based; details: Homo sapiens, MDA-MB-468, 120 h, read-out: Cell Line GI50 Range MDA-MB-468
Protocol: Breast cancer and normal cells were seeded at various concentrations, ranging from 1500 to 4000 per 80 μl according to cell growth rate, into 96-well plates 24 hours before compound overlay. Each 10 mM stock solution in 100% DMSO of the compounds was diluted with Opti-MEM I Reduced-Serum Medium (Invitrogen, Canada) to make concentration ranges from 50 nM to 250 μM. 20 μl from each concentration was added to the cells to make the final concentration range from 10 nM to 50 μM. The cells were cultured at 37° C. for 5 days before the Sulforhodamine B (SRB) assay was performed to assess cell survival. SRB is a water-soluble dye that binds to the basic amino acids of cellular proteins. Thus, colorimetric measurement of the bound dye provides an estimate of the total protein mass and is related to cell number. The cells were fixed in situ by gently aspirating off the culture media and adding 50 μl ice-cold 10% Tri-chloroacetic Acid (TCA) per well and incubation at 4° C. for 30-60 min. The plates were washed with tap water five times and allowed to air dry for 5 min. 50 μl of 0.4% (w/v) SRB solution in 1% (v/v) acetic acid was added per well and incubated for 30 mM at RT for staining. Following staining, plates were washed four times with 1% acetic acid to remove any unbound dye and then allowed to air dry for 5 min. The stain was solubilized with 100 μl of 10 mM Tris pH 10.5 per well. Absorbances were read at 570 nm. The cell survival percentage at each compound concentration was calculated over the cell DMSO control, which was growing in the presence of 0.1% DMSO (0.5% in the case of 50 μM compounds). Cell viability GI50 values were calculated using GraphPad PRISM software (GraphPad Software, Inc.).

Akt1/PKBalpha = Akt1/PKBalpha (Homo sapiens, UniProt P31749); experiment: Kinase selectivity assay (CEREP, HTRF); type: biochemical; details: read-out: % Inhibition at 10 μM Concentration
Protocol: (§1) The inhibitory activity of selected compounds was evaluated against a panel of 45 different kinase enzymes by CEREP, France. The assays were performed using standard HTRF assay methods as documented by CEREP against the human orthologues of Abl kinase, Akt1/PKBa, AMPKa, BMX kinase (Etk), Brk, CaMK2a, CaMK4, CDC2/CDK1 (cycB), CHK1, CHK2, c-Met kinase, CSK, EphB4 kinase, ERK1, ERK2 (P42mapk), FGFR2 kinase, FGFR4 kinase, FLT-1 kinase (VEGFR1), FLT-3 kinase, Fyn kinase, IGF1R kinase, IRK (InsR), JNK 2, KDR kinase (VEGFR2), Lck kinase, Lyn kinase, MAPKAPK2, MEK1/MAP2K1, p38a kinase, p38d kinase, p38g kinase, PDGFRb kinase, PDK1, PKA, PKCa, PKCb1, PKCb2, PKCg, Ret kinase, ROCK2, RSK2, Src kinase, Syk, and TRKA. The % Inhibition was determined by the formula; % Inhibition=100×(1−(experimental value−background value)/(high activity control−background value)).

ERK (P42mapk) = ERK (P42mapk) (Homo sapiens, UniProt P28482); experiment: Kinase selectivity assay (CEREP, HTRF); type: biochemical; details: read-out: % Inhibition at 10 μM Concentration
Protocol: as §1

FGFR2 = FGFR2 (Homo sapiens, UniProt P21802); experiment: Kinase selectivity assay (CEREP, HTRF); type: biochemical; details: read-out: % Inhibition at 10 μM Concentration
Protocol: as §1

FGFR4 = FGFR4 (Homo sapiens, UniProt P22455); experiment: Kinase selectivity assay (CEREP, HTRF); type: biochemical; details: read-out: % Inhibition at 10 μM Concentration
Protocol: as §1

JNK 2 = JNK 2 (Homo sapiens, UniProt P45984); experiment: Kinase selectivity assay (CEREP, HTRF); type: biochemical; details: read-out: % Inhibition at 10 μM Concentration
Protocol: as §1

KDR (VEGFR2) = KDR (VEGFR2) (Homo sapiens, UniProt P35968); experiment: Kinase selectivity assay (CEREP, HTRF); type: biochemical; details: read-out: % Inhibition at 10 μM Concentration
Protocol: as §1

Lck = Lck (Homo sapiens, UniProt P06239); experiment: Kinase selectivity assay (CEREP, HTRF); type: biochemical; details: read-out: % Inhibition at 10 μM Concentration
Protocol: as §1

Lyn = Lyn (Homo sapiens, UniProt P07948); experiment: Kinase selectivity assay (CEREP, HTRF); type: biochemical; details: read-out: % Inhibition at 10 μM Concentration
Protocol: as §1

MAPKAPK2 = MAPKAPK2 (Homo sapiens, UniProt P49137); experiment: Kinase selectivity assay (CEREP, HTRF); type: biochemical; details: read-out: % Inhibition at 10 μM Concentration
Protocol: as §1

MEK1/MAP2K1 = MEK1/MAP2K1 (Homo sapiens, UniProt Q02750); experiment: Kinase selectivity assay (CEREP, HTRF); type: biochemical; details: read-out: % Inhibition at 10 μM Concentration
Protocol: as §1

PDK1 = PDK1 (Homo sapiens, UniProt O15530); experiment: Kinase selectivity assay (CEREP, HTRF); type: biochemical; details: read-out: % Inhibition at 10 μM Concentration
Protocol: as §1

PKA = PKA (Homo sapiens, UniProt P17612); experiment: Kinase selectivity assay (CEREP, HTRF); type: biochemical; details: read-out: % Inhibition at 10 μM Concentration
Protocol: as §1

PKCgamma = PKCgamma (Homo sapiens, UniProt P05129); experiment: Kinase selectivity assay (CEREP, HTRF); type: biochemical; details: read-out: % Inhibition at 10 μM Concentration
Protocol: as §1

ROCK2 = ROCK2 (Homo sapiens, UniProt O75116); experiment: Kinase selectivity assay (CEREP, HTRF); type: biochemical; details: read-out: % Inhibition at 10 μM Concentration
Protocol: as §1

Ret = Ret (Homo sapiens, UniProt P07949); experiment: Kinase selectivity assay (CEREP, HTRF); type: biochemical; details: read-out: % Inhibition at 10 μM Concentration
Protocol: as §1

Src = Src (Homo sapiens, UniProt P12931); experiment: Kinase selectivity assay (CEREP, HTRF); type: biochemical; details: read-out: % Inhibition at 10 μM Concentration
Protocol: as §1

TRKA = TRKA (Homo sapiens, UniProt P04629); experiment: Kinase selectivity assay (CEREP, HTRF); type: biochemical; details: read-out: % Inhibition at 10 μM Concentration
Protocol: as §1

c-Met = c-Met (Homo sapiens, UniProt P08581); experiment: Kinase selectivity assay (CEREP, HTRF); type: biochemical; details: read-out: % Inhibition at 10 μM Concentration
Protocol: as §1

p38alpha = p38alpha (Homo sapiens, UniProt Q16539); experiment: Kinase selectivity assay (CEREP, HTRF); type: biochemical; details: read-out: % Inhibition at 10 μM Concentration
Protocol: as §1

p38delta = p38delta (Homo sapiens, UniProt O15264); experiment: Kinase selectivity assay (CEREP, HTRF); type: biochemical; details: read-out: % Inhibition at 10 μM Concentration
Protocol: as §1

Chain of MAPKAPK2 (P49137 whole entry): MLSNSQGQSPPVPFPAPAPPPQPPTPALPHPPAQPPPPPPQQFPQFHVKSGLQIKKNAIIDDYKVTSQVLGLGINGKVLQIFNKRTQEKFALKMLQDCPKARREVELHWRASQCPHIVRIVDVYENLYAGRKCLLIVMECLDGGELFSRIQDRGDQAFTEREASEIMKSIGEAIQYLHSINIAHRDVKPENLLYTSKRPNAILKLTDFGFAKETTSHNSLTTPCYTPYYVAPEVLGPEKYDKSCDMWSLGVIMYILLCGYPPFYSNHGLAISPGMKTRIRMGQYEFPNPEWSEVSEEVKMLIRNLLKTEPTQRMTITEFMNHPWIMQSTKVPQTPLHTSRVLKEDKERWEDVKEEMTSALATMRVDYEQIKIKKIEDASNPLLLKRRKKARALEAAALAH
Chain of ERK (P42mapk) (P28482 whole entry): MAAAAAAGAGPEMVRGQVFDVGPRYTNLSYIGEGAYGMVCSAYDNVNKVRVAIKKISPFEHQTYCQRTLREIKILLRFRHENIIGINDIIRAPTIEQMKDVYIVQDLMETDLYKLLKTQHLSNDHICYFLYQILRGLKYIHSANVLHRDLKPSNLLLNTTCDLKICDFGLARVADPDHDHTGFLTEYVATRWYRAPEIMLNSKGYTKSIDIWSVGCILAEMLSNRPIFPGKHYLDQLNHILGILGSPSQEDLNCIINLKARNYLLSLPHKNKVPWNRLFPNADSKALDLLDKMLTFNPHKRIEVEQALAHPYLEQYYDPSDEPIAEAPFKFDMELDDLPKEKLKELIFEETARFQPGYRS
Chain of Ret (P07949 29-1114): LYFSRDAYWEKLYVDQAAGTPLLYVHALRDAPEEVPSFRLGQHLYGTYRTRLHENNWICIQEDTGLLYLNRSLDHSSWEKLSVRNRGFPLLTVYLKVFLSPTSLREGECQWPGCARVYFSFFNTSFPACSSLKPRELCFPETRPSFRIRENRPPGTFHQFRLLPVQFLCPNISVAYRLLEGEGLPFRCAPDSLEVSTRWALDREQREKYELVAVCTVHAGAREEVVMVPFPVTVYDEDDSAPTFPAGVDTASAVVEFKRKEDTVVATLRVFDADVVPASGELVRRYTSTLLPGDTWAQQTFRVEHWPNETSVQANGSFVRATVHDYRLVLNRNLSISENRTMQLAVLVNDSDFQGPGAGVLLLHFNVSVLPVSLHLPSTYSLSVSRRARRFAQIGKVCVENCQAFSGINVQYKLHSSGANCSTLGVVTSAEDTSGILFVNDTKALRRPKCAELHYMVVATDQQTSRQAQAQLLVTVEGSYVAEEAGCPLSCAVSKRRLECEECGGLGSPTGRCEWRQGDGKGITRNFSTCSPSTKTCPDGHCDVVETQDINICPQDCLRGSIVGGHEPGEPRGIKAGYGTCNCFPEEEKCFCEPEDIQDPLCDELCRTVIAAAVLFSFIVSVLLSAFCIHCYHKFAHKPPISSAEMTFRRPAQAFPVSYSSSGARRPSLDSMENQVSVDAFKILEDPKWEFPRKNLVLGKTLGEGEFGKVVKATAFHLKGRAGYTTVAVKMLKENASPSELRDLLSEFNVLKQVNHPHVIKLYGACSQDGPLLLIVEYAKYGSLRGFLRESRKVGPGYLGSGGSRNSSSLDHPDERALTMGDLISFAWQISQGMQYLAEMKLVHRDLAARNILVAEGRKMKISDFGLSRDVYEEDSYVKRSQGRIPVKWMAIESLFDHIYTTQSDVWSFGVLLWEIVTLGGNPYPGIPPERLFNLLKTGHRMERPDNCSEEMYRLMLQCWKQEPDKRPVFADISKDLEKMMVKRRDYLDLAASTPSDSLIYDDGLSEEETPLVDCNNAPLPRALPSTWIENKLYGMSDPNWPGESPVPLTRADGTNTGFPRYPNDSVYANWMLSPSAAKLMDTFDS
Chain of Akt1/PKBalpha (P31749 whole entry): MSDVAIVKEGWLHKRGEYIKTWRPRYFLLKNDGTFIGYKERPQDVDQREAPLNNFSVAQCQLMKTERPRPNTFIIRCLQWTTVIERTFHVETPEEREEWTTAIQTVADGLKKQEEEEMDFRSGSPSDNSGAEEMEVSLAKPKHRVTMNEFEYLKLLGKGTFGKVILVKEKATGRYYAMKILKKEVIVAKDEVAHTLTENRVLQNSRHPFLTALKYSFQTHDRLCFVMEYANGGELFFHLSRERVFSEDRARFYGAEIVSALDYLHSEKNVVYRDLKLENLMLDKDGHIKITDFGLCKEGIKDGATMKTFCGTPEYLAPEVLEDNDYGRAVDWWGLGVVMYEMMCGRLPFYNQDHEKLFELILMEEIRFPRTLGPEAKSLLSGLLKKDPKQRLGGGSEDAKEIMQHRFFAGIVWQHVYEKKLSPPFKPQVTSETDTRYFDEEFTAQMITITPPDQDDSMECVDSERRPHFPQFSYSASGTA
Chain of p38delta (O15264 whole entry): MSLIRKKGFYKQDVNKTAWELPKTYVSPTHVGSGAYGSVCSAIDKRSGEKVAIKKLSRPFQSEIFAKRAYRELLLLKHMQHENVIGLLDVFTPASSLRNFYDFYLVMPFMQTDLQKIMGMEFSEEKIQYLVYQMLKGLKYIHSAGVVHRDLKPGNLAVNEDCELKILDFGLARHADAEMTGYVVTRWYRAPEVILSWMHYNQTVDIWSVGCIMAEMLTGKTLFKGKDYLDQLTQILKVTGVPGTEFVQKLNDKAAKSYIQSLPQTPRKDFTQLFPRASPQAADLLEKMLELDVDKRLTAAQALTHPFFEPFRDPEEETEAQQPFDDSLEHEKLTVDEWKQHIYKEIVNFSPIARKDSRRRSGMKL
Chain of Lyn (P07948 whole entry): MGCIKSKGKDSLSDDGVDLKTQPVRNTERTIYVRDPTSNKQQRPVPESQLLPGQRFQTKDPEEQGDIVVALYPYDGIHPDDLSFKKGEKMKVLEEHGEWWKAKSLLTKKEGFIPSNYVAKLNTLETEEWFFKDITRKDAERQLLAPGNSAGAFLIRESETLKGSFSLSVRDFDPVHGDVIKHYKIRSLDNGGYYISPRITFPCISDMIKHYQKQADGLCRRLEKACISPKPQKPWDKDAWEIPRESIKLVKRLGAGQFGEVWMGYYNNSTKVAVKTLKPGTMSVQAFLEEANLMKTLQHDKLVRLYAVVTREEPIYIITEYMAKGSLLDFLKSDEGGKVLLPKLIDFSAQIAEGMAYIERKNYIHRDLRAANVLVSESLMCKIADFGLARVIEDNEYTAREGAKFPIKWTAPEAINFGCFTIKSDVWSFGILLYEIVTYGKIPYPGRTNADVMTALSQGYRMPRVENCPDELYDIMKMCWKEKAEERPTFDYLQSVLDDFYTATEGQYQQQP
Chain of c-Met (P08581 25-1390): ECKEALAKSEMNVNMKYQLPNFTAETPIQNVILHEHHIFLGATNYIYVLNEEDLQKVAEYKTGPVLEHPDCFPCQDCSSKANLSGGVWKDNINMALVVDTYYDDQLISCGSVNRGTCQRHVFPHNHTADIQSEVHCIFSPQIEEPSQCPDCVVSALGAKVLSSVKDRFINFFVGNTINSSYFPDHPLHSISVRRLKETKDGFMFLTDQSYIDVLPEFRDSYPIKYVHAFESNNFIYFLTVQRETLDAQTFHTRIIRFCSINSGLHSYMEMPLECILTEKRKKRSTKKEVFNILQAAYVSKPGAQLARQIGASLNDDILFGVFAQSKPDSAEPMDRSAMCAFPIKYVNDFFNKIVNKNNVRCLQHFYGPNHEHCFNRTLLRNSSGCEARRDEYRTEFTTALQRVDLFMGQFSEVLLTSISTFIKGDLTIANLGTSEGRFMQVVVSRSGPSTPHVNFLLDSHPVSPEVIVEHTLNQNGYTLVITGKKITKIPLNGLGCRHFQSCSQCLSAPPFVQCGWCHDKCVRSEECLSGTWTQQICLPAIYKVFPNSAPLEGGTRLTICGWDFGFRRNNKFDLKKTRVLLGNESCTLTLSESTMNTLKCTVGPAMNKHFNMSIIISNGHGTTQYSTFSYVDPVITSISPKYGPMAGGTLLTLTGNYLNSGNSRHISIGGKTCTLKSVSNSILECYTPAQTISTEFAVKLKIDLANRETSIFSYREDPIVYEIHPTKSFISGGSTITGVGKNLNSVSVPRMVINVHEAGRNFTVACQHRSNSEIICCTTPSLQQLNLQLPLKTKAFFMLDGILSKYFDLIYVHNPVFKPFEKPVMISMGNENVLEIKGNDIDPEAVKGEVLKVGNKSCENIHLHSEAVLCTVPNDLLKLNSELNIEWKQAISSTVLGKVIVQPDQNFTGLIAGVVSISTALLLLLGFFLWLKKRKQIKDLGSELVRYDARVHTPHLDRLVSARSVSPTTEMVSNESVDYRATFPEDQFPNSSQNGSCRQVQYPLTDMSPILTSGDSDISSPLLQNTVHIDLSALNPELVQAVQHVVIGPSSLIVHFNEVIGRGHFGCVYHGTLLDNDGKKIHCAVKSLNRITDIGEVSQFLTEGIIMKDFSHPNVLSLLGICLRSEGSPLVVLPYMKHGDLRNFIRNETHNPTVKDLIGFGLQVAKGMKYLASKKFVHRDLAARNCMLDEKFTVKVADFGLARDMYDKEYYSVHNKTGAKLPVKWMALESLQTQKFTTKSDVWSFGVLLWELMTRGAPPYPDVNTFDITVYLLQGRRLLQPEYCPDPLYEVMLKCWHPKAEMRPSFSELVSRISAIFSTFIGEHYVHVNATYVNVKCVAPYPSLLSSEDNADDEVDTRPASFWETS
Chain of MEK1/MAP2K1 (Q02750 whole entry): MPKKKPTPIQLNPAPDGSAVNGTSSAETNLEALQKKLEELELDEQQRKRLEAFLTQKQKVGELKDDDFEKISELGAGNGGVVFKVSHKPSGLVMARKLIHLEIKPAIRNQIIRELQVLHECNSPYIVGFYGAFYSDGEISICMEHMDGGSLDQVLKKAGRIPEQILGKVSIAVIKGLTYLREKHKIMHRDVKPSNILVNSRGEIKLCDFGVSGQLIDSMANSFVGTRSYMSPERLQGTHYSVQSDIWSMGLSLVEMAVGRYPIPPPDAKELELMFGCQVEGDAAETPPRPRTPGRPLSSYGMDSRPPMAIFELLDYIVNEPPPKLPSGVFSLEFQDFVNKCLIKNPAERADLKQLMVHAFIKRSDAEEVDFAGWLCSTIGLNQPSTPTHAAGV

Structure (SMILES)	IC50 (Aurora B) [µM]	GI50 [1] [µM]	inhibition at 10 µM (Akt1/PKBalpha) [%]	inhibition at 10 µM (ERK (P42mapk)) [%]	inhibition at 10 µM (FGFR4) [%]	inhibition at 10 µM (JNK 2) [%]	inhibition at 10 µM (Lck) [%]	inhibition at 10 µM (Lyn) [%]	inhibition at 10 µM (MAPKAPK2) [%]	inhibition at 10 µM (MEK1/MAP2K1) [%]	inhibition at 10 µM (PDK1) [%]	inhibition at 10 µM (PKA) [%]	inhibition at 10 µM (PKCgamma) [%]	inhibition at 10 µM (ROCK2) [%]	inhibition at 10 µM (Ret) [%]	inhibition at 10 µM (Src) [%]	inhibition at 10 µM (TRKA) [%]	inhibition at 10 µM (c-Met) [%]	inhibition at 10 µM (p38alpha) [%]	inhibition at 10 µM (p38delta) [%]	further results
COc1ccc2c(c1)[C@@]1(C[C@@H]1c1ccc3c(-c4ccc(N5CCN(C)CC5)nc4)n[nH]c3c1)C(=O)N2 (racemic) [Compound 2]	< 5	< 5	–	–	–	–	–	–	–	–	–	–	–	–	–	–	–	–	–	–	inhibition at 10 µM (Aurora A; dose of 10 μM, read-out: Aurora A relative inhibition percentage): < 50%
COc1ccc2c(c1)/C(=C\c1ccc3c(/C=C/c4ccc(N5CCN(C)CC5)nc4)n[nH]c3c1)C(=O)N2 [Compound 3]	< 5	–	-5	15	-30	15	13	-2	6	-3	5	-5	3	-20	33	26	43	2	22	-2	IC50 (Aurora A; read-out: IC50 Ranges Aurora A): < 5 µM; inhibition at 10 µM (FGFR2): 4%; inhibition at 10 µM (KDR (VEGFR2)): 32%
CN(C)Cc1ccc(/C=C/c2n[nH]c3cc([C@H]4C[C@@]45C(=O)Nc4ccccc45)ccc23)cc1 (racemic) [Compound 35]	–	< 5	-4	2	-12	5	100	86	2	-2	2	-7	10	32	86	51	101	61	-22	5	–
